The text below walks through data of patent US11571443B2, “Phosphorylated tri-block copolymers with antimicrobial properties” (THE UNIVERSITY OF CHICAGO, priority 2016, dated 2023).

Molecules are shown by their SMILES. Entries after “also recorded” stand apart in the source; their conditions may differ.

In assay [1] the test system is S. marcescens. Conditions: cited from earlier work.
In a further assay the test system is Enterococcus faecalis. The experiment in a line: Growth of Enterococcus faecalis. It counts as cell-based. Conditions: in vitro. The protocol:
The inability of PPi-6 to suppress the collagenolytic activity of E. faecalis in vitro relates to its inability in vivo to improve anastomotic healing. […] The efficacy of this compound in vivo correlated to its ability to profoundly suppress collagenase activity in these strains […]. […] Actually, PPi-6 at concentrations of >2 mM even suppressed the E. faecalis growth.

Assay [2] deals with P. aeruginosa. Conditions: supplementation in the drinking water; cited from earlier work.
The subject of a further assay is E. faecalis E2. The settings on record: oral administration.
In assay [3] the test system is S. marcescens. The settings on record: supplementation in the drinking water; cited from earlier work.
Assay [4] deals with P. aeruginosa. The settings on record: cited from earlier work.
The subject of the next assay is human pathogen community. The experiment in a line: Mice with 30% hepatectomy and intestinal infection with human pathogen community, polymers in drinking water. Type of assay: in vivo.
In assay [5] the test system is Enterococcus faecalis collagenolytic strains (E2 and E27). The experiment in a line: Collagenase production of collagenolytic Enterococcus faecalis, overnight incubation. It counts as cell-based. Conditions: in vitro.
The mark [6] stands for this setting: 3% PPi6 or 1% polymer in drinking water, POD2, SAH+PC mice.

Description for E. faecalis E2: Next, the compound was tested in a mouse model of E. faecalis-mediated anastomotic leak by providing 1% ABA-PEG20k-Pi20 in drinking water. At post-operative day (POD) 7, anastomotic healing was assessed and the total amount of E. faecalis present at the anastomotic site and the percentage of E. faecalis expressing the collagenolytic phenotype were determined.
Two groups of mice were involved in this study. All mice were subjected to colon anastomosis followed by an enema of E. faecalis E2 at POD1. The first group received water, and the second group received 1% ABA-PEG20k-Pi20 dissolved in water. At the time of sacrifice at POD7, the tissues and luminal contents were collected at the site of anastomosis, homogenized, and used for culturing. Total Enterococcus colonization at the anastomosis site and luminal content were determined by culture analysis using Enterococcal selective plates (BD Difco) on which all Enterococcus species produced black-pigmented colonies. The CFU count was normalized to the sample weight. […] The collagenolytic population was evaluated on Enterococcal plates covered with skim milk on which collagenolytic species produced black colonies with a clearing halo surrounding the colony.
Excerpt for human pathogen community: (A) FIG. 10(A) provides data showing the extent of cell proliferation in cecal crypts of mice provided with drinking water lacking a phosphorylated PEG (PC 1-3, i.e., pathogen community, plates 1-3 wherein each plate contained 10 or 15 C. elegans worms exposed to pathogens), drinking water containing 3% PPi6 (hexametaphosphate) (PPi6 1-3 refers to plates 1-3 as described above, but exposed to pathogens from mice drinking 3% PPi6), or drinking water containing 1% ABA-PEG20k (ABA-PEG20k-P120 1-3, wherein 1-3 refers to plates 1-3 as described above exposed to pathogen from mice drinking 1% ABA-PEG20k). All groups are SAH+PC (starvation-positive, antibiotic-positive hepatectomy subjects exposed to the pathogen community), POD2 (data from post-operative day 2), and cell proliferation is measured by immunostaining for Ki67.
An experiment was conducted to assess the effects of phosphorylated polymers, i.e., PPi-6 and ABA-PEG20k-Pi20, delivered orally as drinking solutions to mice subjected to 30% hepatectomy and intestinal infection with the human pathogen community. More particularly, the mice were divided into the following groups. Group 1 contained starvation-positive, antibiotic-positive mice receiving no phosphorylated PEG but exposed to the pathogen community. Data from three groups of mice were analyzed. Absolute (FIG. 16A) and relative to crypt depth (FIG. 16B) Ki67 distributions were counted on 90 crypts cumulative of 3 mice in each group. Group 2 contained starvation-positive, antibiotic-positive mice receiving 3% PPi-6 and exposed to the pathogen community. Data from three mice were analyzed, totaling 109 crypts for Ki67 counts. Group 3 contained starvation-positive, antibiotic-positive mice receiving 1% ABA-PEG20k-Pi20 and exposed to the pathogen community. Data from three mice were analyzed, totaling 168 crypts for Ki67 counts.
Stem cell proliferation in cecal crypts, measured by immunostaining for the Ki67 marker, provides an accepted measure of crypt homeostasis.

As to `O=P1([O-])OP(=O)([O-])OP(=O)([O-])OP(=O)([O-])OP(=O)([O-])OP(=O)([O-])O1.[Na+].[Na+].[Na+].[Na+].[Na+].[Na+]` [PPi-6, Sodium hexametaphosphate], the collagenase production entry with S. marcescens [1] is “profoundly suppresses the collagenase production”. Further, in the assay with Enterococcus faecalis, the E. faecalis growth result was “does not promote a growth” and the “concentration that suppressed E. faecalis growth” value is over 2 mM. Further, the “protection from colonic anastomosis leakage” value with P. aeruginosa [2] was “protects mice from colonic anastomosis leakage”. Further, the “anastomotic healing / protection in mouse model” value with E. faecalis E2 is reported as “did not improve the anastomotic healing complications”. In the assay on S. marcescens [3], the “protection from colonic anastomosis leakage” value is recorded as “protects mice from colonic anastomosis leakage”. Moreover, the collagenase production result in the assay on P. aeruginosa [4] is “profoundly suppresses the collagenase production”. Further, in the assay with human pathogen community (3% PPi6 or 1% ABA-PEG20k-Pi20 in drinking water), the “abnormal stem cell proliferation in cecal crypts” value was “inhibit abnormal stem cell proliferation”. Besides, in the assay with human pathogen community (setting [6]), the “height of cell proliferation above cecal crypt base (Ki67)” value is listed as 31.04±1.288 m and the “height of proliferating cells relative to cecal crypt depth (Ki67)” value was 35.12±1.332 m. Further, the mortality rate in the assay with human pathogen community (post-operative day 2, 3% PPi6 or 1% ABA-PEG20k-Pi20 in drinking water) came out at 0%. Further, the “collagenase production / collagenolytic activity of E. faecalis” value in assay [5] is listed as “only slightly attenuated collagenase production; also recorded: does not affect the collagenolytic activity”.
